Source: patent US5292736A, “Morpholinoalkylindenes as antiglaucoma agents” (Sterling Winthrop Inc., priority 1993, dated 1994)
Read-outs that look alike come from different tables or passages of the source.

How the values were obtained:
[1] = system: acetylcholine-induced abdominal constriction; experiment: acetylcholine-induced abdominal constriction test (ACH), oral; type: in vivo; conditions: oral administration
Excerpt: Data obtained by the oral administration of the invention in the acetylcholine-induced abdominal constriction test (ACH), a measure of analgesic effectiveness, are expressed in the table below as the ED50 in mg/kg or as the percent inhibition at a given dose level in mg/kg. The acetyl choline-induced abdominal constriction test (ACH) is described in Brit. J. Pharmacol., 32: 295 (1968) and U.S. Pat. No. 4,581,534, incorporated herein by reference.

cannabinoid receptor = biological target: T1, cannabinoid receptor (Rattus norvegicus, UniProt P20272); experiment: cannabinoid receptor binding test (CR), predictive of antiglaucoma activity
T1 construct: Brain tissue from rats was homogenized; from tissue; host or cells: rat brain, washed homogenate membranes
T1 sequence (P20272 whole entry): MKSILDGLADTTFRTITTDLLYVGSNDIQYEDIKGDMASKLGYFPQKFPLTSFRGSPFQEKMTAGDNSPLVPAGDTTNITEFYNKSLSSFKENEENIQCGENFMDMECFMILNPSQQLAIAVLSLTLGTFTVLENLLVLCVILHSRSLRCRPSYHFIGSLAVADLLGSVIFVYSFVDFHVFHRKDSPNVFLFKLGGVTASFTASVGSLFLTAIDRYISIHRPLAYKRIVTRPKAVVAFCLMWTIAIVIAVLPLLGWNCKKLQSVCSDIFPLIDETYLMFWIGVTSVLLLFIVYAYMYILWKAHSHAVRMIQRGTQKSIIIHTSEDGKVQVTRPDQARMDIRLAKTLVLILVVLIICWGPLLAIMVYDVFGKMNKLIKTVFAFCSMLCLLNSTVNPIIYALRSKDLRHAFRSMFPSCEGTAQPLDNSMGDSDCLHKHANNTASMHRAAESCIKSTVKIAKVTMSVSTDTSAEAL
Method: (§1) In standard biological test procedures, compounds of formula I were tested for analgesic and cannabinoid receptor activity. The mouse vas deferens test correlates well with analgesic activity and has long been used to screen for such activity. Cannabinoid receptor binding is characteristic and predictive of the efficacy of intraocular pressure reducing compounds and was thus used to test the compounds of formula I for antiglaucoma activity.
Data from the cannabinoid receptor binding test (CR), predictive of antiglaucoma activity, was obtained as follows:
Brain tissue from rats was homogenized in ice cold 20 mM HEPES-NaOH, pH 7.0, diluted approximately 1:100 (w/v) with the same buffer and centrifuged at 48,000 g for 10 minutes at 4° C. The pellet was washed by resuspension and centrifugation as above. The final pellet was suspended (1:120 w/v) in 20 mM HEPES-NaOH, pH 7.0 and stored on ice for use within 1 hour.
Compounds (10 mM) were solubilized in a mixture of 0.3 N methane sulfonic acid - 13.5% ethanol. Cannabinoids were dissolved in absolute ethanol. Other compounds were dissolved in dimethylsulfoxide (DMSO). All compounds were diluted in 20 mM HEPES, pH 7.0 containing 5 mg/ml bovine serum albumin (BSA).
The final assay concentration of BSA was 1.0 mg/ml in these experiments. Final assay concentrations of ≤50 mM ethanol, ≤1×10^-3 N methane sulfonic acid, ≤2.5 mM ethanol+3×10^-4 N methane sulfonic acid or ≤3% DMSO had no effect on specific binding. The possible effects of all vehicles were controlled in each assay.
The assay was started with the addition of homogenate and the tubes incubated at 30° C. for 90 min in a shaking waterbath. Each tube contained 20 mM HEPES-NaOH buffer, pH 7.0, 1.0 mg/ml BSA, competing drug or vehicle, and 100-125 μg membrane protein in a 1 ml incubation volume. Saturation studies were conducted over 3 log units of radioligand concentration (0.1-22 nM). Specific binding was defined as the difference in binding in the presence and absence of 1.0 μM unlabeled 2-[(3-chloro-4-hydroxyphenyl)amino]benzene methanol, a molecule that is known to […] bind to cannabinoid receptors.
Samples were filtered over Whatman GF/B filters with 20 ml of 20 mM HEPES, pH 7.0, containing 0.5 mg/ml BSA. Radioactivity on the filters, expressed in dpm, was measured by liquid scintillation spectrometry. Assays were conducted in triplicate and experiments were repeated at least three times.
The results for the CR test are IC50 concentrations (in nM) or % inhibition at 1 μM and 30 μM concentrations.

mouse vas deferens = mouse vas deferens test (MVD), screening for analgesic activity; type: cell-based; conditions: considered active at 5.0 μM or less
Method: as §1
The mouse vas deferens test (MVD), a means of screening for analgesic activity, is disclosed in U.S. Pat. No. 4,840,950, which is incorporated herein by reference.

[2] = 30 μM; rat brain membranes, pH 7.0, 30° C., 90 min
[3] = 1 μM; rat brain membranes, pH 7.0, 30° C., 90 min
[4] = rat brain membranes, pH 7.0, 30° C., 90 min; read-out: CR IC50

SMILES | ED50 [1] | IC50 (mouse vas deferens) | inhibition at 1 µM (cannabinoid receptor; [3]) | Ach percent inhibition at 100 mg/kg [1] | also measured
Fc1ccccc1C=C1C=C(CCN2CCOCC2)c2ccccc21 [Example 7] | 86 mg/kg |  |  |  | inhibition at 30 µM (cannabinoid receptor; [2]): 78%
C(=C1C=C(CCN2CCOCC2)c2ccccc21)c1ccccc1 [Example 2] | 65 mg/kg | 79 nM | 33% |  | 
COc1ccc(C=C2C(C)=C(CCN3CCOCC3)c3ccccc32)cc1 [Example 3] |  |  | 45% | 30% | 
COc1ccc(C=C2C=C(CCCN3CCOCC3)c3ccccc32)c2ccccc12 [Example 15] |  |  |  | 10% | IC50 (cannabinoid receptor; [4]): 12 nM
CC1=C(CCN2CCOCC2)c2ccccc2C1=Cc1ccnc2ccccc12 [Example 11] |  | 1650 nM |  | 40% | 
COc1ccc(C=C2C=C(CCN3CCOCC3)c3ccccc32)c2ccccc12 [Example 8] | 3.2 mg/kg | 8 nM |  |  | IC50 (cannabinoid receptor; [4]): 0.9 nM
Oc1ccc(C=C2C=C(CCN3CCOCC3)c3ccccc32)c2ccccc12 [Example 19] | 2.7 mg/kg |  | 97% |  | 
N#Cc1ccc(C=C2C=C(CCN3CCOCC3)c3ccccc32)cc1 [Example 17] | 100 mg/kg |  | 76% |  | 
C(=C1C=C(CCN2CCOCC2)c2ccccc21)c1cccc2ccccc12 [Example 9] |  | 7 nM |  |  | Ach percent inhibition at 10 mg/kg ([1]; 10 mg/kg): 83%; IC50 (cannabinoid receptor; [4]): 1 nM
C[S+]([O-])c1ccc(C=C2C=C(CCN3CCOCC3)c3ccccc32)cc1 (centres unmarked) [Example 21, 4-[2-[[1-[4-(methylsulfinyl)phenyl]methylene]-1H-inden-3-yl]ethyl]morpholine] | 25 mg/kg | 193 nM |  |  | 
Fc1ccc(C=C2C=C(CCCN3CCOCC3)c3ccccc32)cc1 [Example 5] | 52 mg/kg |  |  |  | inhibition at 30 µM (cannabinoid receptor; [2]): 5%
C(=C1C=C(CCN2CCOCC2)c2ccccc21)c1cccc2[nH]ccc12 [Example 18] | 15 mg/kg | 310 nM |  |  | 
COc1ccc(C=C2C=C(CCN3CCOCC3)c3ccccc32)cc1 [Example 1, 4-[2-[1-[(4-methoxyphenyl)methylene]-1H-inden-3-yl)ethyl]morpholine] | 46 mg/kg | 80 nM |  |  | IC50 (cannabinoid receptor; read-out: CR IC50; rat brain membranes, pH 7.0, 30° C., 90 min): 58 nM
CN(C)c1ccc(C=C2C=C(CCN3CCOCC3)c3ccccc32)cc1 [Example 6] | 103 mg/kg |  |  |  | inhibition at 30 µM (cannabinoid receptor; [2]): 88%
CSc1ccc(C=C2C=C(CCN3CCOCC3)c3ccccc32)cc1 [Example 4] | 50 mg/kg |  | 96% |  | 
C(=C1C=C(CCCN2CCOCC2)c2ccccc21)c1cccc2ccccc12 [Example 12] |  | 96 nM | 97% | 30% | 
C(=Cc1ccccc1)C=C1C=C(CCN2CCOCC2)c2ccccc21 [Example 14] |  |  | 68% | 20% | 
COc1ccc(C=C2C=C(CCN3CCOCC3)c3ccccc32)cc1OC [Example 13] | 19 mg/kg | 19 nM |  |  | IC50 (cannabinoid receptor; [4]): 28 nM
COc1ccc(C=C2C(C)=C(CCN3CCOCC3)c3ccccc32)c2ccccc12 [Example 16] |  | 350 nM |  | 30% | 
COc1ccc(C(=O)OC(=C2C=C(CCN3CCOCC3)c3ccccc32)c2ccc(OC)cc2)cc1 [Example 22, (4-methoxyphenyl)[3-(2-[4-morpholinyl)ethyl)-1H-inden-1-ylidine]methyl 4-methoxy benzoate] |  |  | 51% | 10% | 
CC1=C(CCN2CCOCC2)c2ccccc2C1=Cc1cccc2ccccc12 [Example 10] | 34 mg/kg | 45 nM |  |  | IC50 (cannabinoid receptor; [4]): 10 nM
C(=C1C=C(CCN2CCOCC2)c2ccccc21)c1c2ccccc2cc2ccccc12 [Example 20] |  | 812 nM |  |  | 
